Experimental data published in ChEMBL document CHEMBL5465560, “Selectivity Literature for EUbOPEN Chemogenomic Library” (2024).

Legend:
[1] = target: T1, Phosphatidylinositol 4,5-bisphosphate 3-kinase catalytic subunit delta isoform (Homo sapiens) (UniProt O00329); experiment: Selectivity interaction (KinomeScan (DiscoverX)) EUB0000618a PIK3CD; details: at 10 µM
T1 sequence (whole entry): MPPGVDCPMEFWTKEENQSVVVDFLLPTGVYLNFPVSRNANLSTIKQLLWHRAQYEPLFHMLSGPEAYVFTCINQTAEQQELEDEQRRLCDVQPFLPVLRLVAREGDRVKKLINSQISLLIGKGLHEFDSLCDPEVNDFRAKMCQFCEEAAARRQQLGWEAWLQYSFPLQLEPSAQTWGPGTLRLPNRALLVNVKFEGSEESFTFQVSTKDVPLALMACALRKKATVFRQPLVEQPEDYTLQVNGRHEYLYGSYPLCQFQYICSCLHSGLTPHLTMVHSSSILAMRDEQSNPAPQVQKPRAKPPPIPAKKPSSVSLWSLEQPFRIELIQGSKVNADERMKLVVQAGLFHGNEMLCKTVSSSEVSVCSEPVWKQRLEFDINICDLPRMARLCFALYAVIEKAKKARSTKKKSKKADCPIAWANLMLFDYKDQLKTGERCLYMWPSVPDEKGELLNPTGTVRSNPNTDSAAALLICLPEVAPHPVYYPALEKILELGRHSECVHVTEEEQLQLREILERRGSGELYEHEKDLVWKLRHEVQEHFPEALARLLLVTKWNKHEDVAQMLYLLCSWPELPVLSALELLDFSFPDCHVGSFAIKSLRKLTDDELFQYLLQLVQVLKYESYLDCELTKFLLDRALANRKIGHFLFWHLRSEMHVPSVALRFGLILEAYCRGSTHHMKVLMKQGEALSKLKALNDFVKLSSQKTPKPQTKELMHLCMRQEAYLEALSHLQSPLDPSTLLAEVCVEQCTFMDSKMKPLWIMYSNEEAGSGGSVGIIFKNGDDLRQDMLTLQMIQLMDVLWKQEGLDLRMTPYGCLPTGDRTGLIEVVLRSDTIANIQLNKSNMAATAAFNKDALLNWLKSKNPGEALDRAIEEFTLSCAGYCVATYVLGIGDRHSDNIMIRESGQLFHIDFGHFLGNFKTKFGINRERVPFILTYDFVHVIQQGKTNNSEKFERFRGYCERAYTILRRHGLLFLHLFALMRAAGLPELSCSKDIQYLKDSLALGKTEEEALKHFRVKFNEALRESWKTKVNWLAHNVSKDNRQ

[2] = target: Casein kinase II subunit alpha (Homo sapiens, UniProt P68400); experiment: Selectivity interaction (SelectScreen profiling (Invitrogen)) EUB0000607a CSNK2A1; details: at 2 µM
[3] = target: Ribosomal protein S6 kinase beta-1 (Homo sapiens, UniProt P23443); experiment: Selectivity interaction (KinomeScan (DiscoverX)) EUB0001619a RPS6KB1; details: at 1 µM
[4] = target: Tyrosine-protein kinase Srms (Homo sapiens) (UniProt Q9H3Y6); experiment: Selectivity interaction (KinomeScan (DiscoverX)) EUB0001619a SRMS; details: at 1 µM
[5] = target: Tyrosine-protein kinase ABL2 (Homo sapiens, UniProt P42684); details: at 10 µM
[6] = test system: Epidermal growth factor receptor (Homo sapiens), P00533 [T790M]; details: at 10 µM
[7] = target: Cyclin-dependent kinase 14 (Homo sapiens) (UniProt O94921); experiment: Selectivity interaction (KinomeScan (DiscoverX)) EUB0001049a CDK14; details: at 1 µM
[8] = target: Glutamate receptor ionotropic, NMDA 1 (Homo sapiens) (UniProt Q05586); experiment: Selectivity interaction (Panel of kinases, GPCRs, ion channels and transporters (enzymatic assay)) EUB0000223bCl GRIN1
Peregrin (Homo sapiens) = target: T2, Peregrin (Homo sapiens) (UniProt P55201); experiment: Selectivity interaction (Human bromodomain panel (DSF assay)) EUB0000233b BRPF1
T2 sequence (whole entry): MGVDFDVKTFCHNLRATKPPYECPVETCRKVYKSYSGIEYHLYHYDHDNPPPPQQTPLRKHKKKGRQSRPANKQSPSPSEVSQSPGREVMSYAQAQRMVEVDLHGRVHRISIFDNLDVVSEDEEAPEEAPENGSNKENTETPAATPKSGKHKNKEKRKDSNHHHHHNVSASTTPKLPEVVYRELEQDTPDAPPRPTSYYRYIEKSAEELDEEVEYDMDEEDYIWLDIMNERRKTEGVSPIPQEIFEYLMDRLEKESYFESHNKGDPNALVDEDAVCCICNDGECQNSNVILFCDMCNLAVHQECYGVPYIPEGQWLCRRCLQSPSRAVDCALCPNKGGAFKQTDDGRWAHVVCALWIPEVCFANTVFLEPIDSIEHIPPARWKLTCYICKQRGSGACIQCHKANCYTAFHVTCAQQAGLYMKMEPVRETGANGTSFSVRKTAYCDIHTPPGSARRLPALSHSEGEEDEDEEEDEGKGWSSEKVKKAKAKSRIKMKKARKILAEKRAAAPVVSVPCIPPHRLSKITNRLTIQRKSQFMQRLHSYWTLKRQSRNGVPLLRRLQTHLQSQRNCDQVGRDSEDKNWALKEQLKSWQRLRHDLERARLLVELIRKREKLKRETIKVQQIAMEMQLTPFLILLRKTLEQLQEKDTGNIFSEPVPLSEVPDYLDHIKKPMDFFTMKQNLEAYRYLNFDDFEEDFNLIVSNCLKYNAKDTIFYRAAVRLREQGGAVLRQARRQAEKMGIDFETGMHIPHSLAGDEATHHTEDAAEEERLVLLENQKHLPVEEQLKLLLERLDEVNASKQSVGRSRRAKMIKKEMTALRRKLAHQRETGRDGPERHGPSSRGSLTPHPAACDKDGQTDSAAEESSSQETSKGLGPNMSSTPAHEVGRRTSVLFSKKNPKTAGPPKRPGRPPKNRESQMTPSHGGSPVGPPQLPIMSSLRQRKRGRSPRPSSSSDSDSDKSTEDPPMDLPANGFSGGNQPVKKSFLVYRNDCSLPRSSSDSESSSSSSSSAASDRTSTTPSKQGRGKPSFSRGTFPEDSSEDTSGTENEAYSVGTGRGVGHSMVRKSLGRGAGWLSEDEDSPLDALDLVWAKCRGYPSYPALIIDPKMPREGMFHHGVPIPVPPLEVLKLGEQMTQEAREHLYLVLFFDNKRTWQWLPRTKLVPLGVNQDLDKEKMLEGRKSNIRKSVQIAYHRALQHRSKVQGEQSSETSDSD

[9] = target: Rho-associated protein kinase 2 (Homo sapiens, UniProt O75116); experiment: Selectivity interaction (Kinase panel (Z-LYTE Assay)) EUB0001632a ROCK2; details: at 10 µM
[10] = target: Tyrosine-protein kinase Fyn (Homo sapiens) (UniProt P06241); experiment: Selectivity interaction (KinomeScan (DiscoverX)) EUB0000695a FYN; details: at 100 nM

Chain of Ribosomal protein S6 kinase beta-1 (P23443 whole entry, looked up): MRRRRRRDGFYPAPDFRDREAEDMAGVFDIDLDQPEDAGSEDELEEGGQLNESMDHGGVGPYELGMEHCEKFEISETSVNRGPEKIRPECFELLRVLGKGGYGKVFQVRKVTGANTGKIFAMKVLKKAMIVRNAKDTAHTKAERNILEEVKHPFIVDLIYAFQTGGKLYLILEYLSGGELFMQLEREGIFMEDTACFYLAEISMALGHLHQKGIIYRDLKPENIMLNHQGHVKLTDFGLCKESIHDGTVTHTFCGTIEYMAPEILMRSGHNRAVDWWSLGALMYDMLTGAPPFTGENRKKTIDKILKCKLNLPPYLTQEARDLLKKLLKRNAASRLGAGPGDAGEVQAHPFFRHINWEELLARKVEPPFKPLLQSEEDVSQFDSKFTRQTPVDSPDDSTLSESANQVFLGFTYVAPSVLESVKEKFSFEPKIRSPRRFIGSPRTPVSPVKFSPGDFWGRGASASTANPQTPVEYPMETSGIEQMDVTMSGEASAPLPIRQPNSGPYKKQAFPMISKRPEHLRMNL
Chain of Rho-associated protein kinase 2 (O75116 whole entry, looked up): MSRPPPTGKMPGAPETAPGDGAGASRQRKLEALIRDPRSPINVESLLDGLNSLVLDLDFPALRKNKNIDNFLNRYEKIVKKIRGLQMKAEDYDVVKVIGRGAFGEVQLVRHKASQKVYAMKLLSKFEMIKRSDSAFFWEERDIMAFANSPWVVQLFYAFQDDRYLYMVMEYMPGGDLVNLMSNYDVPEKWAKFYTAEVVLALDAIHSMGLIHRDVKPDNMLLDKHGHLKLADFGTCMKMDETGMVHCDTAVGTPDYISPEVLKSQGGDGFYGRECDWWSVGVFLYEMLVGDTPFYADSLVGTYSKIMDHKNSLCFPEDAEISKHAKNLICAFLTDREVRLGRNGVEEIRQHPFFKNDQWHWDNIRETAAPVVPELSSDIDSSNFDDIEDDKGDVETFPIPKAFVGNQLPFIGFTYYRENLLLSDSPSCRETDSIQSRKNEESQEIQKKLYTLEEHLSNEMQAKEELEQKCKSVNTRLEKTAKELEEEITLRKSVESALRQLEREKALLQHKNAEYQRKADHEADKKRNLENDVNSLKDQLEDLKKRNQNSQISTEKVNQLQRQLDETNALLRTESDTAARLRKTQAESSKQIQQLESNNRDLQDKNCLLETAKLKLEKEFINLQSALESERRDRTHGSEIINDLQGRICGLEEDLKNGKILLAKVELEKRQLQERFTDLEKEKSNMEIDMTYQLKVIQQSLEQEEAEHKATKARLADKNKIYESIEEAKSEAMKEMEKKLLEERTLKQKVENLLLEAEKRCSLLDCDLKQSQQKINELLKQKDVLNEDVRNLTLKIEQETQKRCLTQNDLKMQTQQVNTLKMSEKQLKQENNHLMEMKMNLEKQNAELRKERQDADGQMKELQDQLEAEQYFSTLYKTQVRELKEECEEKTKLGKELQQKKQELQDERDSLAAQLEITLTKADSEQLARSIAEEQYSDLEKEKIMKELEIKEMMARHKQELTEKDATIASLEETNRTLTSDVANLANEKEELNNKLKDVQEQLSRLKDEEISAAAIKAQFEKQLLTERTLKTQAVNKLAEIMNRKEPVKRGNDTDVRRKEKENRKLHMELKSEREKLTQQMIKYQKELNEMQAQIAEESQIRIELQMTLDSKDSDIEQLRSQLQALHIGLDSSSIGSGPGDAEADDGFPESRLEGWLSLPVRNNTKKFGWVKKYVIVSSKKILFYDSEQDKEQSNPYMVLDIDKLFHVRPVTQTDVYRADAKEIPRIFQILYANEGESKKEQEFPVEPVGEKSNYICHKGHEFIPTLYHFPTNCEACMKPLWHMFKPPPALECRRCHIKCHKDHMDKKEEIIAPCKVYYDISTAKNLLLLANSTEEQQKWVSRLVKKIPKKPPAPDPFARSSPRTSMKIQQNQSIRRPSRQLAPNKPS
Chain of Casein kinase II subunit alpha (P68400 whole entry, looked up): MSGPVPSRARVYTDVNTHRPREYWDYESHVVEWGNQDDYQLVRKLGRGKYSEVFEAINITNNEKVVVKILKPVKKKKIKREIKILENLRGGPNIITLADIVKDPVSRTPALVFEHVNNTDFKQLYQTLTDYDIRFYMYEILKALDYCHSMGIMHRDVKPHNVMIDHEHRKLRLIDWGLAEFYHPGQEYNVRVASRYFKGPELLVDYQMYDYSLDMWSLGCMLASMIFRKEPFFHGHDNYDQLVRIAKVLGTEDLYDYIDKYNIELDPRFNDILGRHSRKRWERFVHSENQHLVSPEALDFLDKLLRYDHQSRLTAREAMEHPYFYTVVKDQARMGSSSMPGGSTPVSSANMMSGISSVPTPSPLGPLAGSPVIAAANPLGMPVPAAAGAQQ
Chain of Epidermal growth factor receptor (Homo sapiens), P00533 [T790M] (P00533 whole entry T790M): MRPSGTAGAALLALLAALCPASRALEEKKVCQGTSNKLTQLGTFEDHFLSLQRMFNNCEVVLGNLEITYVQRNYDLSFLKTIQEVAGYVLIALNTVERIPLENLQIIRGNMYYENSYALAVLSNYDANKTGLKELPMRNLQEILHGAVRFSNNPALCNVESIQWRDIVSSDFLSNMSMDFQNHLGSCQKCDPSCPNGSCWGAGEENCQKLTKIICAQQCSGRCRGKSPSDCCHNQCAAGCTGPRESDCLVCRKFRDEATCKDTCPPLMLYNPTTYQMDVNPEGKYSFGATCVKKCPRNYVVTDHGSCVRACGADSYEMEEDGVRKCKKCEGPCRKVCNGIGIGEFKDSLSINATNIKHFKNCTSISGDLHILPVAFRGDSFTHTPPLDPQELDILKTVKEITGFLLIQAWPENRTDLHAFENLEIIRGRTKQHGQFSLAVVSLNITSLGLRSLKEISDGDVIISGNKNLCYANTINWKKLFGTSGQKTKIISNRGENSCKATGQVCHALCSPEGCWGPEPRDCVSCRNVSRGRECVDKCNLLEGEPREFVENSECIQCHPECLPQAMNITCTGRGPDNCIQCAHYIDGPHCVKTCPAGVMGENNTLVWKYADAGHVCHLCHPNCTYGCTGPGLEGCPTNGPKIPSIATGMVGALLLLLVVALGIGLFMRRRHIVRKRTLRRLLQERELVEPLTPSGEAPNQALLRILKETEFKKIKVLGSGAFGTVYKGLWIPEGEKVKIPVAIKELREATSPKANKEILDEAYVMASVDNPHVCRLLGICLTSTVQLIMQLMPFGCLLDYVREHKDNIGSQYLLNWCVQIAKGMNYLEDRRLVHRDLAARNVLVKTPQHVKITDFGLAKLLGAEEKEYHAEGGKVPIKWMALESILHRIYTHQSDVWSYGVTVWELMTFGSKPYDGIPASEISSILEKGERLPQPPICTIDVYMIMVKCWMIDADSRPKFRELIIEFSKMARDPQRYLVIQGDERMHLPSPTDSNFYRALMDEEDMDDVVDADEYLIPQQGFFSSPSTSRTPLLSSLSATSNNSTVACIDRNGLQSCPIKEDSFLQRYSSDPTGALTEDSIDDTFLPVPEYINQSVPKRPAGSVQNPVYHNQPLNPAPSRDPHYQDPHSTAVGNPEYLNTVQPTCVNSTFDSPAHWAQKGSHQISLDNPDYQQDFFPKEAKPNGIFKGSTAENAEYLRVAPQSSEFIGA
Chain of Tyrosine-protein kinase ABL2 (P42684 whole entry): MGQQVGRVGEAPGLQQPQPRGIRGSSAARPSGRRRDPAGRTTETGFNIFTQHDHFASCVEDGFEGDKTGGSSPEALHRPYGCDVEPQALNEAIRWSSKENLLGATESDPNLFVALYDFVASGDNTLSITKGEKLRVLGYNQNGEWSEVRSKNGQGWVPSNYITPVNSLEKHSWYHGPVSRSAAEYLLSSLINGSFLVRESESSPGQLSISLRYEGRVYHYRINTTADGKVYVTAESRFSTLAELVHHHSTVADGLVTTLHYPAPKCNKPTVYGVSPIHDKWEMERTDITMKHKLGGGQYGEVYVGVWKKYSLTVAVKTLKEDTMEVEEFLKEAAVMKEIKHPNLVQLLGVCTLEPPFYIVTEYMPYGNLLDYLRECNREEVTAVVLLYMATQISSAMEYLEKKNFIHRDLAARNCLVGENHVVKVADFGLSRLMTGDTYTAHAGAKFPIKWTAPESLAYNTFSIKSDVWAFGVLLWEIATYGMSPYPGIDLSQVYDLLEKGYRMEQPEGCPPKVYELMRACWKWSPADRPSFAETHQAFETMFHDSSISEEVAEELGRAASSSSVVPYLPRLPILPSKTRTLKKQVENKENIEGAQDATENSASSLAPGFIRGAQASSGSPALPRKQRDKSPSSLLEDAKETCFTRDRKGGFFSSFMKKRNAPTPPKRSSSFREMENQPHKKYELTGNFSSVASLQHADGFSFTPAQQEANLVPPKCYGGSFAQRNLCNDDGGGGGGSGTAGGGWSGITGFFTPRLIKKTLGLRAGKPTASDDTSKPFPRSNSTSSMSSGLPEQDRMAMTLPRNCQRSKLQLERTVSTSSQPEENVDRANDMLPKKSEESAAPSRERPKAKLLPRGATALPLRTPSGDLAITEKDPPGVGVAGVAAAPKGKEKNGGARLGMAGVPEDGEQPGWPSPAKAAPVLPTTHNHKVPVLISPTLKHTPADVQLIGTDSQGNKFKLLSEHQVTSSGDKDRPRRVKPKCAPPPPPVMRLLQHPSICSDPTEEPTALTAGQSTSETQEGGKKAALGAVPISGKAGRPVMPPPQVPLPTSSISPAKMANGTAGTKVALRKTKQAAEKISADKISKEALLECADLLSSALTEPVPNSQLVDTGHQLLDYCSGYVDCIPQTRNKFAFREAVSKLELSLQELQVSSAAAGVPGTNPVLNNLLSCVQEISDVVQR

With `O[C@H]1CC[C@H](Nc2ncc3nc(Nc4c(F)cc(F)cc4F)n([C@H]4CCOC4)c3n2)CC1` the % of control [1] was 96%.

Work on `CNC(=O)Nc1ccc(-c2nc(N3CC4CCC(C3)O4)c3cnn(C4CCC5(CC4)OCCO5)c3n2)cc1` yielded a % of inhibition [2] of 0%.

`N#Cc1cccc(-c2c[nH]c3ncnc(N4CCOCC4)c23)c1` showed a % of control [3] of 100% and a % of control [4] of 94%.

Molecule `Cc1cc([C@@H](C)Nc2ccccc2C(=O)O)c2nc(N3CCOCC3)cc(=O)n2c1` [AZD-6482] has a % of control [5] of 95% and a % of control [6] of 100%.

Molecule `COc1cc(Nc2nc(C)cc(-c3cnn4nc(OC)ccc34)n2)cc(C(F)(F)F)c1` has a % of control [7] of 87%.

Molecule `COc1cc(C(=O)N2CC[C@@H](O)[C@@H](N)C2)cc2nc(-c3cc4ccccc4n3CC3CC3)n(C)c12` has a pXC50 [8] of 4.8 M.

`CN(C)CCCOc1ccc(-c2cc(NCCCn3cccn3)nc(S(C)(=O)=O)n2)cc1` showed a dTM (Peregrin (Homo sapiens)) of under 2 K.

Work on `Cn1cc(-n2cnc3c(NCc4nc5cc(Cl)c(Cl)cc5[nH]4)nc(N4CCOCC4)nc32)cn1` yielded a % of control [9] of 3.57%.

`Cc1cc(F)c(C(=O)Nc2cccc(-c3nncn3C(C)C)n2)cc1-n1cnc(C2CC2)c1` gave a % of control [10] of 99%.
